Test results as given in patent publication US4520026A, “Indolizine derivatives and use as cardiovascular agents” (S. A. Labaz N.V., priority 1982, dated 1985).

Legend:
[1] = system: blood-flow to the myocardium; assay: Effect on blood-flow to the myocardium, anaesthetized dogs, intravenous; type: in vivo, dog; settings: anaesthetized dog
Procedure: It was undertaken on anaesthetized dogs which received the substance under study by intravenous route. The intensity of the maximum effect on blood-flow to the myocardium was expressed in percentage of the corresponding value before injection. The time required for the maximum effect to decrease by 50% represented the duration of the effect. This time was measured in minutes.

[2] = system: epinephrine-increased blood-pressure (anti-α effect); assay: Antiadrenergic effect: anti-α effect (reduction of epinephrine-increased blood-pressure); type: in vivo; settings: dog
Procedure: (§1) The purpose of this test was to determine the capacity of the compounds under study to reduce epinephrine-increased blood-pressure (anti-α effect) and epinephrine-accelerated heart rate (anti-β effect) in the dog previously anaesthetized with pentobarbital and atropinized.
(§2) For each dog, the dose of epinephrine was first determined which provoked a reproductible increase by about 100 mm. Hg in the arterial pressure (between 5 and 10 μg/kg). After that, the dose of epinephrine so determined was administered followed by a dose by intravenous route of the compound to be studied. The percentage of reduction of the hypertension provoked by the compound under study in comparison with the hypertension previously obtained (about 100 mm. Hg) was then registered.
(§3) The percentage of reduction of the epinephrine-induced acceleration of heart-rate produced by the compound under study in comparison with the tachycardia previously measured (about 70 beats) was then registered. In both cases, the results were expressed as follows: […]
(§4) + for a <50%-reduction of the increase in pressure or cardiac frequency
(§5) ++ for a ≥50%-reduction of the increase in pressure or cardiac frequency
(§6) +++ for a subtotal reduction of the increase in pressure or cardiac frequency

[3] = system: epinephrine-accelerated heart rate (anti-β effect); assay: Antiadrenergic effect: anti-β effect (reduction of epinephrine-accelerated heart rate); type: in vivo; settings: dog
Procedure: as §1, §2, §3, §4, §5, §6

[4] = Canis lupus familiaris, iv, dose 10 mg/kg i.v., read-out: Max. increase (blood-flow to the myocardium)
[5] = Canis lupus familiaris, iv, dose 5 mg/kg i.v., read-out: Max. increase (blood-flow to the myocardium)
[6] = Canis lupus familiaris, iv, dose 8 mg/kg i.v., read-out: Max. increase (blood-flow to the myocardium)
[7] = Canis lupus familiaris, iv, dose 10 mg/kg i.v.
[8] = Canis lupus familiaris, iv, dose 7 mg/kg i.v.
[9] = Canis lupus familiaris, iv, dose 7.5 mg/kg i.v.
[10] = Canis lupus familiaris, iv, dose 7.8 mg/kg i.v.
[11] = Canis lupus familiaris, iv, dose 8.76 mg/kg i.v.

CCCc1c(Br)c2ccccn2c1C(=O)c1ccc(OCCCN(CCC)CCC)c(Br)c1 [Br/Br/H/n-C3H7/n-C3H7/3, 1-Bromo-2-n-propyl-3-[4-(3-di-n-propylaminopropyl)-oxy-3-bromo-benzoyl]-indolizine]
change in vivo at 10 mg/kg [1, 4]: 90%
Time required to decrease to 50% (duration of effect) ([1]; dose 10 mg/kg i.v.): 20 min

CCCCN(CCCC)CCCOc1ccc(C(=O)c2c(C(C)C)c(Br)c3ccccn23)cc1Cl [Br/Cl/H/iso-C3H7/n-C4H9/3, 1-Bromo-2-isopropyl-3-[4-(3-di-n-butylaminopropyl)-oxy-3-chloro-benzoyl]-indolizine]
change in vivo at 5 mg/kg [1, 5]: 133%
Time required to decrease to 50% (duration of effect) ([1]; dose 5 mg/kg i.v.): 20 min

CCCCN(CCCC)CCCOc1ccc(C(=O)c2c(-c3ccc(Br)cc3)cc3ccccn23)cc1Br [H/Br/H/drawing 13/n-C4H9/3]
change in vivo at 10 mg/kg [1, 4]: 90%
Time required to decrease to 50% (duration of effect) ([1]; dose 10 mg/kg i.v.): 25 min

CCCN(CCC)CCCOc1ccc(C(=O)c2c(-c3ccc(Cl)cc3)c(Cl)c3ccccn23)cc1 [Cl/H/H/drawing 22/n-C3H7/3]
change in vivo at 5 mg/kg [1, 5]: 50%
Time required to decrease to 50% (duration of effect) ([1]; dose 5 mg/kg i.v.): 40 min

CCCN(CCC)CCCOc1ccc(C(=O)c2c(-c3ccccc3)c(Br)c3ccccn23)cc1Br [Br/Br/H/drawing 11/n-C3H7/3, 1-Bromo-2-phenyl-3-[4-(3-di-n-propylaminopropyl)-oxy-3-bromo-benzoyl]-indolizine]
change in vivo at 10 mg/kg [1, 4]: 100%
Time required to decrease to 50% (duration of effect) ([1]; dose 10 mg/kg i.v.): 20 min

CCCCN(CCCC)CCCOc1c(Cl)cc(C(=O)c2c(-c3ccc(Br)cc3)cc3ccccn23)cc1Cl [H/Cl/Cl/drawing 14/n-C4H9/3]
change in vivo at 10 mg/kg [1, 4]: 45%
Time required to decrease to 50% (duration of effect) ([1]; dose 10 mg/kg i.v.): 15 min

CCCN(CCC)CCCOc1ccc(C(=O)c2c(-c3cccc(Br)c3)cc3ccccn23)cc1Cl [H/Cl/H/drawing 16/n-C3H7/3]
change in vivo at 8 mg/kg [1, 6]: 45%
Time required to decrease to 50% (duration of effect) ([1]; dose 8 mg/kg i.v.): 25 min

CCCCN(CCCC)CCCOc1ccc(C(=O)c2c(-c3ccccc3)c(Br)c3ccccn23)cc1Cl [Br/Cl/H/drawing 17/n-C4H9/3]
change in vivo at 10 mg/kg [1, 4]: 90%
Time required to decrease to 50% (duration of effect) ([1]; dose 10 mg/kg i.v.): 90 min

CCCN(CCC)CCCOc1ccc(C(=O)c2c(-c3ccc(Br)cc3)c(Br)c3ccccn23)cc1Cl [Br/Cl/H/drawing 18/n-C3H7/3]
change in vivo at 10 mg/kg [1, 4]: 50%
Time required to decrease to 50% (duration of effect) ([1]; dose 10 mg/kg i.v.): 50 min

CCCCN(CCCC)CCCOc1ccc(C(=O)c2c(-c3ccc(Br)cc3)cc3ccccn23)cc1Cl [H/Cl/H/drawing 20/n-C4H9/3]
change in vivo at 10 mg/kg [1, 4]: 60%
Time required to decrease to 50% (duration of effect) ([1]; dose 10 mg/kg i.v.): 25 min

CCCCc1c(Br)c2ccccn2c1C(=O)c1ccc(OCCCN(CCC)CCC)c(Br)c1 [Br/Br/H/n-C4H9/n-C3H7/3, 1-Bromo-2-n-butyl-3-[4-(3-di-n-propylaminopropyl)-oxy-3-bromo-benzoyl]-indolizine]
change in vivo at 10 mg/kg [1, 4]: 100%
Time required to decrease to 50% (duration of effect) ([1]; dose 10 mg/kg i.v.): 20 min

CCCCN(CCCC)CCCOc1ccc(C(=O)c2c(-c3cccc(Br)c3)c(Br)c3ccccn23)cc1Br [Br/Br/H/drawing 12/n-C4H9/3]
change in vivo at 10 mg/kg [1, 4]: 150%
Time required to decrease to 50% (duration of effect) ([1]; dose 10 mg/kg i.v.): 100 min

CCCCN(CCCC)CCCOc1c(Cl)cc(C(=O)c2c(-c3ccccc3)c(Br)c3ccccn23)cc1Cl [Br/Cl/Cl/drawing 40/n-C4H9/3, 1-Bromo-2-phenyl-3-[4-(3-di-n-butylaminopropyl)-oxy-3,5-dichloro-benzoyl]-indolizine]
inhibition in vivo at 10 mg/kg [2, 7]: > 50%
inhibition in vivo at 10 mg/kg [3, 7]: > 50%

CCCCN(CCCC)CCCOc1ccc(C(=O)c2c(C)c(Br)c3ccccn23)cc1OC [Br/OCH3/H/CH3/n-C4H9/3, 1-Bromo-2-methyl-3-[4-(3-di-n-butylaminopropyl)-oxy-3-methoxy-benzoyl]-indolizine]
inhibition in vivo at 7 mg/kg [2, 8]: > 50%
inhibition in vivo at 7 mg/kg [3, 8]: > 50%

CCCCN(CCCC)CCCOc1ccc(C(=O)c2c(CCC)c(C)c3ccccn23)cc1Br [CH3/Br/H/n-C3H7/n-C4H9/3, 1-Methyl-2-n-propyl-3-[4-(3-di-n-butylaminopropyl)-oxy-3-bromo-benzoyl]-indolizine]
Anti-α effect ([2]; dose 10 mg/kg i.v.): +++
Anti-β effect ([3]; dose 10 mg/kg i.v.): +++

CCCN(CCC)CCCOc1ccc(C(=O)c2c(C)c(Br)c3ccccn23)cc1OC [Br/OCH3/H/CH3/n-C3H7/3, 1-Bromo-2-methyl-3-[4-(3-di-n-propylaminopropyl)-oxy-3-methoxy-benzoyl]-indolizine]
inhibition in vivo at 7.5 mg/kg [2, 9]: > 50%
inhibition in vivo at 7.5 mg/kg [3, 9]: > 50%

CCCN(CCC)CCCOc1ccc(C(=O)c2c(CC)c(Br)c3ccccn23)cc1Cl [Br/Cl/H/C2H5/n-C3H7/3, 1-Bromo-2-ethyl-3-[4-(3-di-n-propylaminopropyl)-oxy-3-chloro-benzoyl]-indolizine]
inhibition in vivo at 7.8 mg/kg [2, 10]: > 50%
inhibition in vivo at 7.8 mg/kg [3, 10]: > 50%

CCCCc1cc2ccccn2c1C(=O)c1ccc(OCCCN(CCCC)CCCC)c(C)c1 [H/CH3/H/n-C4H9/n-C4H9/3, 2-n-Butyl-3-[4-(3-di-n-butylaminopropyl)-oxy-3-methyl-benzoyl]-indolizine]
inhibition in vivo at 10 mg/kg [2, 7]: > 50%
inhibition in vivo at 10 mg/kg [3, 7]: > 50%

CCCN(CCC)CCCOc1c(Cl)cc(C(=O)c2c(-c3ccccc3)c(Br)c3ccccn23)cc1Cl [Br/Cl/Cl/drawing 39/n-C3H7/3, 1-Bromo-2-phenyl-3-[4-(3-di-n-propylaminopropyl)-oxy-3,5-dichloro-benzoyl]-indolizine]
inhibition in vivo at 10 mg/kg [2, 7]: > 50%
inhibition in vivo at 10 mg/kg [3, 7]: > 50%

CCCCN(CCCC)CCCOc1ccc(C(=O)c2c(-c3ccccc3)cc3ccccn23)cc1Br [H/Br/H/drawing 24/n-C4H9/3]
Anti-α effect ([2]; dose 10 mg/kg i.v.): +++
inhibition in vivo at 10 mg/kg [3, 7]: > 50%

CCCCN(CCCC)CCCOc1ccc(C(=O)c2c(CCC)c(Cl)c3ccccn23)cc1 [Cl/H/H/n-C3H7/n-C4H9/3, 1-Chloro-2-n-propyl-3-[4-(3-di-n-butylaminopropyl)-oxy-benzoyl]-indolizine]
Anti-α effect ([2]; dose 7.5 mg/kg i.v.): +++
Anti-β effect ([3]; dose 7.5 mg/kg i.v.): +++

CCCCN(CCCC)CCCOc1ccc(C(=O)c2c(-c3cccc(Br)c3)cc3ccccn23)cc1Cl [H/Cl/H/drawing 15/n-C4H9/3]
change in vivo at 10 mg/kg [1, 4]: 30%
Time required to decrease to 50% (duration of effect) ([1]; dose 10 mg/kg i.v.): 45 min

CCCN(CCC)CCCOc1ccc(C(=O)c2c(-c3ccc(Br)cc3)c(Br)c3ccccn23)cc1Cl [Br/Cl/H/drawing 27/n-C3H7/3]
inhibition in vivo at 10 mg/kg [2, 7]: > 50%
inhibition in vivo at 10 mg/kg [3, 7]: > 50%

CCCCN(CCCC)CCCOc1ccc(C(=O)c2c(C)cc3ccccn23)cc1C [H/CH3/H/CH3/n-C4H9/3, 2-Methyl-3-[4-(3-di-n-butylaminopropyl)-oxy-3-methyl-benzoyl]-indolizine]
inhibition in vivo at 8.76 mg/kg [2, 11]: > 50%
inhibition in vivo at 8.76 mg/kg [3, 11]: > 50%

CCCCN(CCCC)CCCOc1ccc(C(=O)c2c(CCC)cc3ccccn23)cc1Br [H/Br/H/n-C3H7/n-C4H9/3, 2-n-Propyl-3-[4-(3-di-n-butylaminopropyl)-oxy-3-bromo-benzoyl]-indolizine]
change in vivo at 2 mg/kg ([1]; Canis lupus familiaris, iv, dose 2 mg/kg i.v., read-out: Max. increase (blood-flow to the myocardium)): 120%
Time required to decrease to 50% (duration of effect) ([1]; dose 2 mg/kg i.v.): 25 min

CCCN(CCC)CCCOc1ccc(C(=O)c2c(-c3cccc(Br)c3)c(Cl)c3ccccn23)cc1Cl [Cl/Cl/H/drawing 21/n-C3H7/3, 1-Chloro-2-(3-bromo-phenyl)-3-[4-(3-di-n-propylaminopropyl)-oxy-3-chloro-benzoyl]-indolizine]
change in vivo at 8 mg/kg [1, 6]: 70%
Time required to decrease to 50% (duration of effect) ([1]; dose 8 mg/kg i.v.): 90 min

CCCCN(CCCC)CCCOc1ccc(C(=O)c2c(C)c(C)c3ccccn23)cc1Br [CH3/Br/H/CH3/n-C4H9/3, 1,2-Dimethyl-3-[4-(3-di-n-butylaminopropyl)-oxy-3-bromo-benzoyl]-indolizine]
inhibition in vivo at 10 mg/kg [2, 7]: > 50%
inhibition in vivo at 10 mg/kg [3, 7]: > 50%

CCCCN(CCCC)CCCOc1ccc(C(=O)c2c(C(C)C)cc3ccccn23)cc1C [H/CH3/H/iso-C3H7/n-C4H9/3, 2-Isopropyl-3-[4-(3-di-n-butylaminopropyl)-oxy-3-methyl-benzoyl]-indolizine]
Anti-α effect ([2]; dose 7.5 mg/kg i.v.): +++
Anti-β effect ([3]; dose 7.5 mg/kg i.v.): +++

CCCCN(CCCC)CCCOc1ccc(C(=O)c2c(-c3ccccc3)c(C)c3ccccn23)cc1 [CH3/H/H/drawing 47/n-C4H9/3, 1-Methyl-2-phenyl-3-[4-(3-di-n-butylaminopropyl)-oxy-benzoyl]-indolizine]
Anti-α effect ([2]; dose 6.3 mg/kg i.v.): +++
Anti-β effect ([3]; dose 6.3 mg/kg i.v.): +++

CCCN(CCC)CCCOc1c(Cl)cc(C(=O)c2c(CC)c(Cl)c3ccccn23)cc1Cl [Cl/Cl/Cl/C2H5/n-C3H7/3, 1-Chloro-2-ethyl-3-[4-(3-di-n-propylaminopropyl)-oxy-3,5-dichloro-benzoyl]-indolizine]
inhibition in vivo at 10 mg/kg [2, 7]: > 50%
inhibition in vivo at 10 mg/kg [3, 7]: > 50%
